Structures are written as SMILES.

Series [1] concerns the target T1, interaction between Supt4h and NGN (Homo sapiens, UniProt O00267+P63272).
T1 construct: expressed in transfected cells
In words: Split Gaussia luciferase complementation assay (M2-8 cells). Type of series: cell-based. Particulars: for IC50: M2-8 cells, 24 hr, concentration at which signal was reduced to 50% of untreated. The method, then: i: pNBR-X1-Supt4-Gluc1 and pNEBR-X1-NGN-Gluc2 The HA-Supt4h and Flag-NGN fragments are amplified by PCR using the plasmid pHA-Supt4h-YC and pFlag-NGN-YN and sub-cloned individually into pcDNA3.1-Gluc1 and pcDNA3.1-Gluc2 (described in “A highly sensitive protein-protein interaction assay based on Gausssia luciferase” published at Nat Methods. 2006 December; 3(12):977-9. Epub 2006 Nov. 12). Then HA-Supt4h-Gluc1 and Flag-NGN-Gluc2 are amplified by PCR and inserted to pNEBR-X1-Hygro (New England BioLabs), which contain RheoSwitch responsive element under the control of RheoSwitch ligand.
PCR products containing the sequence from 5XRE to polyA in pNEBR-X1-NGN-G2 are inserted to pNEBR-X1-Supt4h-G1 at PciI site to generate Supt4h-G1 and NGN-G2 bidirectional under their own RheoSwitch responsive element and polyA in the same plasmid.
i: 293-R^1 is a cloned cell which is engineered to constitutively express RSL1 receptor/activator by transfecting HEK 293 cells with pNEBR-R^1 plasmid (New England BioLabs) and selected with Blasticidin.
ii: M2-8 is a cloned 293-R^1 cell which can inducibly express pNEBR-X1-Supt4h-G1-NGN-G2 by addition of RSL1. Two point mutations (M431 and M1101) are introduced to the GL1 and GL2 for better stability according to “A high-throughput cell-based Gaussia luciferase reporter assay for identifying modulators of fibulin-3 secretion” published on J Biomol Screen. 2013 July; 18(6):647-58. The cell line is selected by Hygromycin.
All the HEK-293 cells and derivative cell clones are maintained in DMEM containing 10% FBS plus corresponding antibiotics (250 μg/ml hygromycin B, 10 μg/ml blasticidin or both) at 37° C., 5% CO2. All the transfections are done by using lifpofectamine 2000 (Invitrogen) according to the manufacture's direction.
Plasmids harboring the Gluc1 and Gluc2 are co-transfected in a 1:1 ratio into 293-R^1 cells plated on tissue culture treated 24-well plates using Lipofectamine 2000 according to the manufacturer's instruction. For stable cell M2-8, the cells are plated into 96 well or 384 well white plate directly. 24 hours later, RheoSwitch ligand together with/without test compound is added to the cells for induction/drug treatment. After 24 hr, the cells are washed with PBS and the plate was put in −20° C. freezer for overnight. After taking out the plate from freezer, lysis buffer (30 mM Tris-HCl, pH 8.0, 5 mM NaCl, 0.1% Triton X-100) with 10 μg/ml native coelenterazine (Nanolight Technology) is immediately added to the cells. The cells are lysed at room temperature for one hour in dark. After shaking for about 1 min, 40 μl of cell lysate are transferred to a white 96 well plate. For M2-8 in white micro plate, no transfer is needed. Signal intensities (integrated 100 ms) were read on Tecan Infinite M200 or M1000.
The bioluminescence signal of Gaussia Luciferase from untreated M2-8 cells was set as 100% and the IC50 of the compound was defined as the compound concentration at which the signal intensity was reduced to 50%.
The split Gaussia luciferase complementation assay measures the interaction between Sup4h and NGN. NGN is the subunit of Supt5h that binds to Supt4h. […] Therefore, administration of Compound 1 results in decreased production of mutant proteins encoded by genes that include mutant nucleotide repeats.

In series [2] the test system is Gmr-Htt97Q/+ HD flies. The series is described as follows: Eye morphology (rough eye) analysis in Drosophila HD model. The class given is in vivo, Drosophila melanogaster. The note with it: 100 μM in media. The method, then:
FIG. 2A. The morphology of compound eye was analyzed in fruit flies treated with or without Compound 1. […] To quantify the appearance of “rough eye” in Gmr-Htt97Q/+ treated with 10 and 100 μM of Compound 1, ten flies were randomly picked from each group and the number of flies with “rough eye” phenotype were determined under microscope. Compared to untreated group, the relative percentage of HD flies with “rough eye” phenotype in treated groups is shown (right panel). Data are presented as mean±SD (N=3; **, p<0.01 by student's t test).
The Drosophila melanogaster (fruit fly) HD models used in this set of experiments carry the coding sequence of human Htt exon1 with 97 CAG repeats to mimic mutant Httof Huntington's disease (HD). The Gmr::Htt97Q fly, expressing mutant Htt primarily in the neurons of Drosophila compound eyes, has a severe degeneration of photoreceptor neurons and the phenotypic trait ‘rough eye’. The elav::Htt97Q fly expresses the mutant protein specifically in neuroblasts and glial cells in the Drosophila embryonic CNS, resulting in a substantially negative impact on eclosion. All of the fly stocks and genetics crosses were maintained at 25° C. on standard cornmeal yeast agar media. […]

Series [3] has as its system mutant HTT protein. In words: Mutant HTT activity assay in induced pluripotent stem cells (iPSC). Type of series: cell-based, human. The note with it: iPSCs derived from a Huntington's disease patient, 24 hr, Western blot normalized by tubulin. The method, then:
FIG. 1A-1B. iPSCs were treated with Compound 1 at different doses for 24 hr. The cells were collected and lysed for protein quantification. Equal amounts of protein were applied on SDS-PAGE gel for Western Blotting. Mutant HTT protein was recognized by polyQ antibody (MAB1574 from Millipore) while wild type HTT protein was blotted by anti-Huntingtin antibody (MAB2166 from Millipore) (FIG. 1A). Both proteins were scanned and quantified by Li-Cor Odyssey and normalized by tubulin (FIG. 1B).
Huntington disease patient iPSCs (ND36999 from Coriell Institute) were detached into single cells by Accutase (AT104 from Accutase) and plated on a 24-well plate coated with Matrigel (354277 from Corning). […] The protein concentrations were determined by BCA assay (Pierce, ThermoFisher). […] The protein level of mutant HTT, total HTT and tubulin were determined by immunoblotting with anti-poly Glutamine (MAB1574 from Millipore), anti-Huntingtin protein (MAB2166 from Millipore) and anti-alpha tubulin (AJ1034a from ABGENT). […] The band intensities were determined by Li-Cor Odyssey software.
Using the protocol reported above, iPSCs were treated with Compound 1 at various doses for 24 hr. The cells were collected and lysed for protein quantification. […] Both proteins were scanned and quantified by Li-Cor Odyssey and normalized by tubulin.

The test system of series [4] is elav::Htt97Q HD flies. The series is described as follows: Eclosion rate analysis in Drosophila HD model. Type of series: in vivo, Drosophila melanogaster. As to the method: FIG. 2B. HD fly (elav::Htt97Q) eclosion rate was measured in the presence or absence of Compound 1 treatment. 100 newly hatched flies, generated from crossing of male (elav-gal4/cyo) and female (UAS-Htt97Q/UAS-Htt97Q) flies, were collected at […]. The eclosion rate was determined by the number of HD-flies (elav::Htt97Q) vs. the number of non HD-flies (cyo::Htt97Q) (N=3; *, p<0.05 by student's t test).
The Drosophila melanogaster (fruit fly) HD models used in this set of experiments carry the coding sequence of human Htt exon1 with 97 CAG repeats to mimic mutant Httof Huntington's disease (HD). The Gmr::Htt97Q fly, expressing mutant Htt primarily in the neurons of Drosophila compound eyes, has a severe degeneration of photoreceptor neurons and the phenotypic trait ‘rough eye’. The elav::Htt97Q fly expresses the mutant protein specifically in neuroblasts and glial cells in the Drosophila embryonic CNS, resulting in a substantially negative impact on eclosion. […]
A group of 15 male flies (elav-gal4/cyo) and 15 virgin-female (UAS-Htt97Q/UAS-Htt97Q) flies were cultured in a vial that contains standard yeast agar media without or with Compound 1. […] The eclosion rate is determined by the number of HD-flies vs. the number of non HD-flies in a total of 100 collected flies in each experimental condition. […]

Series [5] deals with HD flies. The series is described as follows: Fly viability. The class given is in vivo, Drosophila melanogaster. Particulars: dose that alleviated phenotypic defects.

By IC50 is commonly meant the point on the concentration scale where inhibition reaches its midpoint. Low readings indicate greater potency, high ones weaker potency. With `Cc1ccc2[nH]c3c(c2c1)CCCC3NCc1ccccc1` (stereo not drawn), the half-inhibitory concentration (IC50) in series [1] is under 1 µM. On to `O=C(NC1CCCc2c1[nH]c1ccc(Cl)cc21)c1ccccn1` (stereo not drawn), for which the IC50 in series [1] was under 1 µM. For `CC(C)Oc1ccc2[nH]c3c(c2c1)CCCC3NCCc1ccccc1` (stereo not drawn), in series [1], the 50% inhibitory concentration (IC50) is over 1 µM. With `CC(C)Oc1ccc2[nH]c3c(c2c1)CCCC3NC1CCCC1` (stereo not drawn), the 50% inhibitory concentration (IC50) in series [1] was over 1 µM. Regarding `CC(C)NC1CCCc2c1[nH]c1ccc(OC(C)C)cc21` (stereo not drawn), the 50% inhibitory concentration (IC50) in series [1] was over 1 µM. In turn, `CC(C)NC1CCCc2c1[nH]c1ccc(Br)cc21` (stereo not drawn) came in with a half-maximal inhibitory concentration (IC50) in series [1] of under 1 µM. In the case of `Brc1ccc2[nH]c3c(c2c1)CCCC3NC1CCCC1` (stereo not drawn), the IC50 in series [1] was under 1 µM. Consider `CCN1CCC(NC2CCCc3c2[nH]c2ccccc32)CC1` (stereo not drawn), for which the IC50 in series [1] was over 1 µM. On to `Cc1ccc2[nH]c3c(c2c1)CCCC3NCc1ccc(F)cc1` (stereo not drawn), for which, in series [1], the IC50 was under 1 µM. `Brc1ccc2[nH]c3c(c2c1)CCCC3NCc1ccccc1` (stereo not drawn) [Compound 1]: in series [2], the “incidence of rough eye phenotype” value is 70% of the untreated group. Moreover, the “interaction between Sup4h and NGN” value in series [1] (split Gaussia assay) was “interrupts the interaction between Sup4h and NGN”. Also, the “mutant HTT protein level” value in series [3] was “decreases mutant HTT protein”. Besides, the eclosion rate result in series [4] is on record as “relatively low eclosion rate was reversed”. Moreover, in series [5], the fly viability result is listed as “did not affect fly viability”. Consider `Brc1ccc2[nH]c3c(c2c1)CCCC3NCc1ccccc1` (stereo not drawn) [drawing 40], for which the IC50 in series [1] is under 1 µM.
